Laboratory results reported in patent publication US20230233515A1, “PHOTODYNAMIC ANTI-GRAM-POSITIVE BACTERIAL ACTIVITY OF PHARMACEUTICAL-GRADE ROSE BENGAL” (priority 2021, published 2023).
Converted amounts (≈) assume the structure as drawn. “And” between values parts separate entries of the source, which are not always exact repeats. Identical values can stand only once. Like-named read-outs stand apart in the source and are kept apart here.

Experiments:
[1] = system: M.smegmatis 607™ (RB mutant); format: cell-based, Mycobacterium smegmatis; conditions: for MIC (µg/mL) against M.smegmatis 607™ (RB mutant): triplicate
[2] = system: M.smegmatis 607™ (wild-type); assay: MIC against M.smegmatis, dark; format: cell-based, Mycobacterium smegmatis; conditions: dark condition, triplicate
[3] = system: air-exposed biofilms of S.aureus BAA-44™; assay: Air-exposed biofilms on agar plate; format: cell-based, Staphylococcus aureus; conditions: for CFU/mL (Dilution 5.8 × 10^11): treated at 0 and 30 min, 1 h, 17W fluorescent light, counted after 24 h at 37° C.
Description: The data of Table 3, below, summarize the effect of RB on air-exposed biofilms of a MRSA, Saureus BAA-44™, under fluorescent light (17 W, 1 h, 0.57 KJ/cm^2). Spraying RB (5.0 µg/mL or 10 µg/mL solution, 250 µL (twice)) and fluorescent light exposure (for 1 h) eradicated significant viable bacteria in the biofilms with a 4-log reduction (determined at a dilution of 5.8×10^9).
The bacteria (about 1.0x10^4) were spread on an agar plate and incubated in an oven at 37° C. for 2 days. The air-exposed biofilms on an agar plate were treated with PV-10. After 1 h under fluorescent light (0.57 KJ/cm^2), saline (2 mL) was added to the agar surface. The bacterial suspension ([…]) was taken into a sterile tube, and serial dilutions were performed. The diluted sample ([…]) was spread on agar plates and incubated at 37° C. for 24 h CFU/mL were counted.

S.cerevisiae [4] = assay: Growth inhibition of yeast; format: cell-based; conditions: Saccharomyces cerevisiae; fluorescent light; read-out: concentration giving 50% growth inhibition
Excerpt: (§1) All studies were done in triplicate. […] “g” = MIC was not determined.
(§2) All studies were done in triplicate. […] MBC: minimum bactericidal concentrations (µg/mL).

[5] = system: biofilms of S.aureus 6508; assay: Anti-biofilm assay; format: cell-based, Staphylococcus aureus; conditions: for viable bacteria in biofilm: dark condition
Description: We applied linezolid as a positive control at very high concentration of 600 µg/mL (>100xMIC for the planktonic cells) in our biofilm assays.
The biofilms were generated on 12-well plates by incubating each bacterium for five days. The planktonic bacteria in the culture media were gently removed, and fresh media were placed. […] An aliquot of each culture was diluted (x10,000 or x100,000) on agar plates at 37° C. for 24 h. CFU/mL was counted.

Enterococcus faecalis = assay: MIC, broth dilution; format: cell-based; conditions: drug-susceptible and drug-resistant incl. vancomycin-resistant strains; entries 17-21
Excerpt: as §1

Mycobacterium spp. = assay: MIC, broth dilution; format: cell-based
Excerpt: as §1

Gram-negative bacteria = assay: MIC, broth dilution; format: cell-based; conditions: dark condition; all Gram-negative bacteria of Table 1, entries 31-47
Excerpt: as §1

[6] = system: Gram-positive Bacillus spp.; assay: MIC, broth dilution; format: cell-based; conditions: illumination; entries 1-3 of Table 1
Excerpt: as §1

Gram-positive bacteria = assay: MIC, broth dilution; format: cell-based
Excerpt: as §1

Staphylococcus aureus = assay: MIC, broth dilution; format: cell-based
Excerpt: as §1

[7] = system: Staphylococcus epidermidis; assay: MIC, broth dilution; conditions: aerobic condition; entry 16
Description: (§6) We have reinvestigated the bactericidal activity of pharmaceutical-grade of RB against a battery of Gram-positive and -negative aerobic bacteria including Mycobacterium spp. and a Saccharomyces sp. under different light sources (fluorescence, LED, and sun light) and in a dark condition. Fluorescent light used was 17W (1,647 lumens, 63.8 cm^2) and LED was a 9.5 W (800 lumens, 28.3 cm^2), specifics about which are discussed hereinafter.
(§7) Minimum inhibitory concentrations (MICs) were determined by broth dilution microplate alamar blue assay or by OD measurement. All compounds were stored in DMSO or saline (1 mg/100 µL concentration). This concentration was used as the stock solution for all MIC studies. Each compound from stock solution was placed in the first well of a sterile 96 well plate and a serial dilution was conducted with the culturing broth (total volume of 10 µL). The bacterial suspension at log phase (190 µL) was added to each well (total volume of 200 µL), and was incubated for 24 h at 37° C.

[8] = system: B.subtilis, B.cereus, and S.aureus; assay: MIC, agar dilution; format: cell-based; conditions: fluorescent light; entries 1-4 in Table 2; read-out: MIC (growth inhibition), agar dilution
Excerpt: as §2
We observed that under the illumination conditions the MIC values of RB determined by the agar dilution method are lower than those determined by the broth dilution method (Table 1).

[9] = system: biofilms of S.aureus 71080 (VRS8); assay: Anti-biofilm assay; format: cell-based, Staphylococcus aureus; conditions: fluorescent light
Description: Here, we examined efficacy of RB against biofilms of a drug-susceptible S.aureus 6508™, and drug-resistant S.aureus 71080 (VRS8) and E.faecium NR-32065 under the florescent light and dark conditions.
The biofilms were generated on 12-well plates by incubating each bacterium for five days. The planktonic bacteria in the culture media were gently removed, and fresh media were placed. […] An aliquot of each culture was diluted (x10,000 or x100,000) on agar plates at 37° C. for 24 h. CFU/mL was counted [47, 69].

a S.aureus strain = conditions: 19.5 µg/mL RB, 10 min visible light, light fluence dose 30 J/cm^2; cited from earlier work
[10] = at the therapeutic concentrations; cited from earlier work
[11] = system: Burkholderia, Salmonella, and Proteus spp.; assay: MIC, broth dilution; conditions: fluorescent or LED lights
Description: as §6, §7

Bacteroides fragilis = assay: MIC, broth dilution; conditions: anaerobic Gram-negative bacterium
Description: We have reinvestigated the bactericidal activity of pharmaceutical-grade of RB against a battery of Gram-positive and -negative aerobic bacteria including Mycobacterium spp. and a Saccharomyces sp. under different light sources (fluorescence, LED, and sun light) and in a dark condition. Fluorescent light used was 17W (1,647 lumens, 63.8 cm^2) and LED was a 9.5 W (800 lumens, 28.3 cm^2), specifics about which are discussed hereinafter. In the studies under sunlight through an architectural window, the 96-well plates were placed on the east side of the building (the BSL-2 lab on the 5th floor, College of Pharmacy, University of Tennessee Health Science Center, Memphis, TN, USA) and the growth inhibition studies were performed between 8 AM and 5 PM (on June 18th, 2021).
Minimum inhibitory concentrations (MICs) were determined by broth dilution microplate alamar blue assay or by OD measurement. All compounds were stored in DMSO or saline (1 mg/100 µL concentration). This concentration was used as the stock solution for all MIC studies. Each compound from stock solution was placed in the first well of a sterile 96 well plate and a serial dilution was conducted with the culturing broth (total volume of 10 µL). […] The absorbance of each well was also measured at 570 and 600 nm via UV-Vis.

[12] = system: Gram-positive and -negative bacteria; assay: Time-kill kinetics, general statements
Description: (§8) Time-kill kinetics assay for antimicrobial agents was performed using CLSI guidelines with a minor modification. The multiple time points in time-kill kinetics assays for RB and the reference molecules were performed. The bacterial culture grown in the broth was diluted to a concentration between 1 × 10^8 and 5.0 × 10^9 CFU/mL.
A stock dilution of the antimicrobial test substance was prepared at approximately 2- to about 8-fold the MIC values. The test compounds were inoculated with equal volumes of the specified bacteria placed in a 96-well plate. The microtiter plates were incubated at 37° C. and duration (1-120 min) under the fluorescent light (conditions are summarized in the figure legend). An aliquot of the culture medium was taken from each well and a serial dilution was performed. The diluted culture was incubated at 37° C. and CFU/mL were counted. Bactericidal activity was defined as greater than 3 log-fold decrease in colony forming units [64].

Streptococcus pneumoniae = assay: MIC, broth dilution; conditions: entry 24
Description: as §6, §7

S.aureus BAA-44 = assay: Time-kill kinetic assay; conditions: twice the RB MIC; fluorescent light
Description: (§9) Thus, the time-course experiments on these bacteria were conducted under the fluorescent light for 2 h (0-1,130 J/cm^2) at concentrations of about 2 to about 8-fold the MIC (RB). Reference molecules used were linezolid (10 µg/mL) and ciprofloxacin (10 µg/mL) for the Gram-positive bacteria and amikacin (10 µg/mL) and meropenem (10 µg/mL) for the Gram-negative bacterium.
as §8
(§10) A stock dilution of the antimicrobial test substance was prepared at approximately 2- to about 8-fold the MIC values. The test compounds were inoculated with equal volumes of the specified bacteria placed in a 96-well plate. The microtiter plates were incubated at 37° C. and duration (1-120 min) under the fluorescent light (conditions are summarized in the figure legend). An aliquot of the culture medium was taken from each well and a serial dilution was performed. The diluted culture was incubated at 37° C. and CFU/mL were counted.

Streptococcus salivarius = assay: MIC, broth dilution; conditions: entry 23
Description: as §6, §7

S.cerevisiae [13] = assay: Minimal bactericidal concentration (MBC) assay
E.faecium NR-32065 = assay: Time-kill kinetic assay; conditions: twice the RB MIC; fluorescent light
Description: as §9, §8, §10

[14] = system: human epidermal keratinocytes (HEKa); assay: Cytotoxicity assay with HEKa cells (stratified epithelium, H&E); conditions: fluorescent light
Description: In these studies, HEKa cells were differentiated to a stratified squamous epithelium via air-liquid interface; this type of epithelium can be applied as a physiological tissue to study epidermal necrolysis by the treatment of RB.
Cytotoxicity of PV-10 against Human Epidermal Keratinocytes (HEKa) were evaluated in a hanging cell culture insert in a 24-well plate. HEKa (4x10^5 cells/mL, 0.5 mL) cell suspension) was placed into the insert where the outside of the inserts was filled with EpiGRO™ Complete Culture Media (1.5 mL) [67]. The cell suspension was incubated at 37° C. overnight (about 18 hours).
The next day, without removing the original medium, an additional 0.5 mL of the medium was added to the inside of each insert and incubated at 37° C. for 2 days. High quality HEKa approached 100% confluence by the third day of submerged culture. On the 4th day, the media was gently aspirated from each insert. The skin cell cultures were maintained at the air/liquid interface.
The skin culture was incubated at 37° C. for an additional 10 days. During the 10-day incubation, the media was changed every other day and any bubbles were removed from beneath the insert membrane.
After 25 days of 3D skin culture, approximately 6 to 8 layers of live epithelium were produced. […]

S.aureus 6538™ = assay: Time-kill kinetic assay; conditions: in 1 minute; 4.6 × 10^8 CFU; fluorescent light
Description: as §9, §8, §10

[15] = system: three E.coli, two Pseudomonas aeruginosa, two Klebsiella pneumoniae, and two Acinetobacter baumannii strains; assay: MIC, broth dilution; conditions: entries 31-39
Description: as §6, §7

[16] = Behaviour in water at stomach pH; format: physicochemical; conditions: water solution having the acidic pH value of the human stomach
Excerpt: For example, the highly acidic gastric environment (pH 1.5-2 in the fasted state; pH 3-6 in the fed state) rises rapidly to about pH 6 in the duodenum and increases along the small intestine to pH 7.4 at the terminal ileum. The pH value in the cecum drops just below pH 6 and again rises in the colon reaching pH 6.7 at the rectum [Hua, Front Pharmacol 11: Article 524 (April 2020)].

S.aureus 71080 (VRS8) = assay: Time-kill kinetic assay; conditions: twice the RB MIC; fluorescent light
Description: as §9, §8, §10

B.cepacia UCB717 = assay: Time-kill kinetic assay; conditions: fluorescent light
Description: as §9, §8, §10

[17] = Cytotoxicity with Vero cells under fluorescent light (confluence); conditions: African green monkey, selectivity index (SI), cytotoxicity versus antibacterial activity, 1 h treatment time
Description: (§3) FIG. 5 is a graph showing the time in hours (h) for cell confluence at four concentrations of HB-RBf (zero µM, 100 µM, 200 µM and 300 µM) when irradiated under fluorescent light;
(§4) Cytotoxicity assays for RB in Vero cells were performed in a 24-well plate.
(§5) Images were collected by AMG EVOS xl transmitted light imaging microscope. […] (5% CO2).

Vero cells = assay: as above; conditions: fluorescent light; for confluence lost: 200 µM
Description: as §3, §4, §5

NC[C@H]1O[C@@H](O[C@H]([C@H]2O[C@@H](n3ccc(=O)[nH]c3=O)[C@H](O)[C@@H]2O)[C@H](NCCCC(=O)NCc2ccc(N3CCC(Oc4ccc(OC(F)(F)F)cc4)CC3)cc2)C(N)=O)[C@H](O)[C@@H]1O [APPB, aminouridyl phenoxypiperidinylbenzyl butanamide]
susceptibility of the RB-resistant strain to the drug ([1]; dark condition): susceptible
MIC (µg/mL) against M.smegmatis 607™ (RB mutant) ([1]; dark condition): 0.20 µg/mL (≈ 0.227 µM)
MIC (µg/mL) against M.smegmatis 607™ (wild-type) [2]: 0.20 µg/mL (≈ 0.227 µM)

NCC[C@H](O)C(=O)N[C@@H]1C[C@H](N)[C@@H](O[C@H]2O[C@H](CN)[C@@H](O)[C@H](O)[C@H]2O)[C@H](O)[C@H]1O[C@H]1O[C@H](CO)[C@@H](O)[C@H](N)[C@H]1O [Amikacin, amikacin]
susceptibility of the RB-resistant strain to the drug ([1]; dark condition): susceptible
MIC ([2]; Mycolicibacterium smegmatis): 0.78 µg/mL (≈ 1.33 µM)

CCc1cc(C(N)=S)ccn1 [Ethionamide, ethionamide]
susceptibility of the RB-resistant strain to the drug [1]: susceptible

NNC(=O)c1ccncc1 [Isoniazid, isoniazid]
susceptibility of the RB-resistant strain to the drug ([1]; dark condition): cross-resistance

O=C([O-])c1c(Cl)c(Cl)c(Cl)c(Cl)c1-c1c2cc(I)c(=O)c(I)c-2oc2c(I)c([O-])c(I)cc12.[Na+].[Na+] [RB, 4,5,6,7-tetrachloro-2′,4′,5′,7′-tetraiodo-fluorescein]
colonies counted (Dilution 5.8 × 10^11) ([3]; first column, PV-10 5.0 µg/mL): 0 (0 colony)
CFU/mL (Dilution 5.8 × 10^11) ([3]; first column, PV-10 5.0 µg/mL): 0 (0 colony) CFU/mL
colonies counted (Dilution 5.8 × 10^11) ([3]; first column, PV-10 10 µg/mL): 0 (0 colony)
CFU/mL (Dilution 5.8 × 10^11) ([3]; first column, PV-10 10 µg/mL): 0 (0 colony) CFU/mL
colonies counted (Dilution 5.8 × 10^11) ([3]; second column, PV-10 5.0 µg/mL): 35 colonies
CFU/mL (Dilution 5.8 × 10^11) ([3]; second column, PV-10 5.0 µg/mL): 9.4 × 10^10 CFU/mL
colonies counted (Dilution 5.8 × 10^11) ([3]; second column, PV-10 10 µg/mL): 17 colonies
CFU/mL (Dilution 5.8 × 10^11) ([3]; second column, PV-10 10 µg/mL): 4.5 × 10^10 CFU/mL
log reduction of viable bacteria in air-exposed biofilms ([3]; spray 5.0 or 10 µg/mL solution, 250 µL twice, fluorescent light 1 h, dilution of 5.8×10^9): 4 log
IC50 (S.cerevisiae [4]): 1.6 µg/mL
viable bacteria in biofilm ([5]; 50.0 µg/mL (2xMIC under dark)): significantly reduced the number of viable bacteria
biofilm eradication, log reduction ([5]; 60.0 µg/mL (77×MIC), fluorescent light): > 5 log
CFU counted in biofilm ([5]; 100 µg/mL, fluorescent light): No CFU were counted
viable bacteria in biofilm ([5]; 1,000 µg/mL): No viable bacteria
MIC (killing concentration) (Enterococcus faecalis): 0.39 to 0.78 µg/mL
killing concentration (MIC) (Mycobacterium spp.; dark conditions): 25000 to 50000 µg/mL
MIC (Mycobacterium spp.; illuminated conditions, 5 Mycobacterium spp., entries 25-29): 12.5 to 25 µg/mL
killing concentration (MIC) (Mycobacterium spp.; illumination conditions): 12500 to 25000 µg/mL
MIC (Gram-negative bacteria): > 100 µg/mL
MIC (killing concentration) [6]: 0.39 to 0.78 µg/mL
MIC (Gram-positive bacteria; dark condition, all Gram-positive bacteria of entries 1-23): 25 to 100 µg/mL
MIC (Gram-positive bacteria; under illumination conditions (fluorescent, LED), wide range of Gram-positive bacteria, entries 1-23 in Table 1): 0.2 to 3.1 µg/mL
MIC (killing concentration) (Staphylococcus aureus; 7 methicillin-resistant S.aureus (MRSA) strains, fluorescent or LED light): 0.78 to 3.1 µg/mL
concentration required to kill >99% of bacteria (Staphylococcus aureus; MIC standard strain, illumination, entry 4): 1.6 µg/mL
MIC (killing concentration) (Staphylococcus aureus; vancomycin-resistant S.aureus strains, either lighting condition): below 1.0 µg/mL
bactericidal activity [7]: effectively killed
MIC [8]: 0.01 to 0.1 µg/mL
biofilm, log reduction of viable bacteria ([9]; 10.0 µg/mL): over 6 log
CFU counted in biofilm ([9]; 30.0 µg/mL or higher): No CFU were counted
loss of viability (a S.aureus strain): about 80%
toxicological effects [10]: does not have systemic toxicological effects, mutagenic potential, and female reproductive and development effects
MIC (killing concentration) [11]: 3.13 to 12.5 µg/mL
concentration tolerated (Bacteroides fragilis): ≥ 100 µg/mL
time to kill ([12]; Gram-negative bacteria): 5 min
time to kill ([12]; Gram-positive bacteria): 1 to 2 min
log reduction ([12]; within 2 hours of contact, preliminary studies): 6 log
susceptibility to RB (Streptococcus pneumoniae): showed resistance
time to kill (S.aureus BAA-44): ≤ 2 min
susceptibility to RB (Streptococcus salivarius): susceptible
concentration not killing the yeast (S.cerevisiae [13]; dark condition): > 500 µg/mL
MBC (to kill >99% of the yeast) (S.cerevisiae [13]; fluorescent light): 400 µg/mL
time to kill (E.faecium NR-32065): ≤ 2 min
necrosis on the surface tissue ([14]; 200 µM, 1 h): Some necrosis
necrosis of the stratum corneum cells ([14]; 10 and 100 µM, 1 h exposure): did not cause necrosis
log reduction of CFU (S.aureus 6538™): 6 log
MIC [15]: 50 µg/mL and > 100 µg/mL
appearance of solution at acidic pH [16]: rapid clouding of the admixture and clumping
time to kill (S.aureus 71080 (VRS8)): ≤ 2 min
time required for a 5-log reduction (B.cepacia UCB717; 2-times the MIC): 40 minutes
log reduction of the bacteria (B.cepacia UCB717; 4-times the MIC, in 5 minutes, 2.9 × 10^8 CFU): > 5 log
selectivity ratio at 1 h ([17]; for Gram-negatives): > 7.9
selectivity ratio at 1 h ([17]; for Gram-positives): > 62.5
confluency lost (Vero cells; 100 µM (97.4 µg/mL), 4 h): ~50%
state of the monolayer (Vero cells; 100 µM, 1 h exposure): intact
confluence lost (Vero cells; 1 h): About 18%
confluence lost (Vero cells; 4 h): over 80%
time to complete loss of the cell viability (Vero cells; 300 µM): ≤ 2 h
concentration tolerated by Vero cells (Vero cells; 1 h): 100 to 200 µM

CC(=O)NC[C@H]1CN(c2ccc(N3CCOCC3)c(F)c2)C(=O)O1 [linezolid, reference compound]
biofilm eradication efficacy ([5]; linezolid at 600 µg/mL, compared with RB 30.0 µg/mL): same level of efficacy

capreomycin
susceptibility of the RB-resistant strain to the drug ([1]; dark condition): susceptible
MIC (µg/mL) against M.smegmatis 607™ (RB mutant) ([1]; dark condition): 3.13 µg/mL
MIC (µg/mL) against M.smegmatis 607™ (wild-type) [2]: 3.13 µg/mL
